Assay results published in US20190292189A1, “LIM KINASE INHIBITORS” (VIRONGY, LLC, priority 2016, published 2019).
Where two headings read alike, the source gives them in different places.

Columns and labels:
P450 2C9 = P450 2C9 (Homo sapiens, UniProt P11712); assay: P450 inhibition at 10 μM; type: in vitro ADME
P450 2D6 = P450 2D6 (Homo sapiens, UniProt P10635); assay: P450 inhibition at 10 μM; type: in vitro ADME
ROCK-II = ROCK-II (Homo sapiens, UniProt O75116); assay: ROCK-II biochemical counter-screen
Limk1 [1] = biological target: T1, Limk1 (Homo sapiens, UniProt P53667); assay: Limk1 biochemical assay (Reaction Biology, 10-dose IC50); design: His; purchased Reaction Biology Corporation; host or cells: insect cells
Target sequence in this assay (P53667 285-638): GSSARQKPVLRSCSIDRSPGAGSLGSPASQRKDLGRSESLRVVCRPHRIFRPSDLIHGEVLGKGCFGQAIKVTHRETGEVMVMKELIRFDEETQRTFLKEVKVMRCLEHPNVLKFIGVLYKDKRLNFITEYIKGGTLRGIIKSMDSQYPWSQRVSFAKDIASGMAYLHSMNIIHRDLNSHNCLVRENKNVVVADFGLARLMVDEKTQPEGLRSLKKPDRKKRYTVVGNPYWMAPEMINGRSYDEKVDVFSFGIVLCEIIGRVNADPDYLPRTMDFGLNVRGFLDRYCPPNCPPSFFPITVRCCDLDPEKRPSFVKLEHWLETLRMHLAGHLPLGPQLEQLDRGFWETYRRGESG

P450 1A2 = biological target: T2, P450 1A2 (Homo sapiens, UniProt P05177)
T2 sequence (P05177 1-516): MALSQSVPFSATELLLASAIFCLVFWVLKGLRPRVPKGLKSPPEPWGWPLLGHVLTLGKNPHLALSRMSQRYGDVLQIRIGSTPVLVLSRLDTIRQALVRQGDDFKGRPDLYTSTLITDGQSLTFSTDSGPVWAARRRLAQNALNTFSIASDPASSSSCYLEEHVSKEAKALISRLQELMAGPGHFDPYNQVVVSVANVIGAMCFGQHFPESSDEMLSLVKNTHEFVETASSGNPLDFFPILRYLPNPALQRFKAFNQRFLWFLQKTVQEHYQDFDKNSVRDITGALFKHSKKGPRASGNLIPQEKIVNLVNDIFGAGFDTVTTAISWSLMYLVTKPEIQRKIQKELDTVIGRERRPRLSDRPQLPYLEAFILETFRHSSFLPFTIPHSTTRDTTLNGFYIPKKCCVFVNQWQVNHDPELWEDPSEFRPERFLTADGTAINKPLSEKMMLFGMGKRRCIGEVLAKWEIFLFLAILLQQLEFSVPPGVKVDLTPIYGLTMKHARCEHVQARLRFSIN

[2] = tested on: p-cofilin in CEM-SS T cells; assay: Cofilin phosphorylation cell assay in CEM-SS T cell lines; type: cell-based; conditions: Homo sapiens
Method: Cells were lysed in NuPAGE LDS Sample Buffer (Invitrogen) followed by sonication. Samples were heated at 90° C. for 10 minutes, separated by SDS-PAGE, and then transferred onto nitrocellulose membranes (Invitrogen). The membranes were washed in TBST for 3 minutes and then blocked for 30 minutes at room temperature with Starting Block blocking buffer (Pierce). […] The blots were washed three times for 15 minutes and scanned with Odyssey Infrared Imager (Li-cor Biosciences). The same blots were also stripped and reprobed with antibodies against GAPDH (Abcam) as a loading control.

[3] = Plasma pharmacokinetics studies on rats; conditions: for Cmax: read-out: Cmax (iv); for F (%) (po): po dosing 2 mg/kg
Method: In vivo pharmacokinetics (PK) studies were conducted for selected compounds during the whole optimization at various stages in order to identify structural elements that are favorable for in vivo applications, and/or to evaluate the feasibility of optimized Limk inhibitors for animal studies.

[4] = tested on: cofilin phosphorylation in A7r5 cells; assay: In-cell Western assay of cofilin phosphorylation in A7r5 cells; type: cell-based
Method: A7r5 (15,000 cells/well) were plated in a clear-bottomed Packard View black 96-well plate in 100 μl of 10% FBS DMEM:F12 medium and were allowed to attach overnight. The next day, the cells were serum starved in 1% FBS DMEM medium for 2 hr and then treated with the compounds for 1 hr. […] Next day, they were washed twice with PBS-0.1% Tween 20 (PBST) washing solution for 5 min each at room temperature on the orbital shaker, followed by one wash with Licor Blocking Buffer containing 0.05% Tween-20 for 5 min on the shaker at RT. The cells were then incubated with secondary antibody goat anti-rabbit IR800 (1:500 dilution) for 1 hr at RT in the dark (covered the plate with foil) in Licor blocking buffer-containing Tween-20. Following this, cells were washed twice with PBST for 5 min each at room temperature and then once with Licor blocking buffer-containing 0.05% Tween-20. The wells were then incubated with ToPro 3 stain (nucleic acid staining), diluted 1:4000 in Licor blocking buffer or Licor blocking buffer with 0.05% Tween-20 for 30 min at room temperature in the dark. Finally the plates were washed twice with PBS and analyzed using the Odyssey LICOR Infrared Scanner.

JNK3 = JNK3 (Homo sapiens, UniProt P53779); assay: JNK3 biochemical counter-screen; conditions: Table 6; read-out: Biochemical Inhibition IC50 (nM) JNK3
P450 3A4 = P450 3A4 (Homo sapiens, UniProt P08684); assay: P450 inhibition at 10 μM; type: in vitro ADME
[5] = Microsomal stability, rat liver microsomes; type: in vitro ADME
PC-3 cells [6] = assay: In vitro migration (wound closure) assay in PC-3 cells; type: cell-based; conditions: Homo sapiens, PC-3, 24 h, read-out: inhibition of migration of PC-3 cells
Method: PC3 cells were cultured to confluence at >90% in 6 well culture dishes in 10% FBS RPMI1640 media the day before the assay. Lines were drawn with a marker on the bottom of the dishes. Using a sterile 1 mL pipet tip, the dishes were scratched three separate wounds through the cells moving perpendicular to the line drawn in the step above. The cells were rinsed with PBS twice very gently and added the RPMI1640 media, and the dishes were taken pictures using phase contrast under Leica DMI3000B microscope.

ROCK-I = ROCK-I (Homo sapiens, UniProt Q13464); assay: ROCK-I biochemical counter-screen; conditions: Table 6; read-out: Biochemical Inhibition IC50 (nM) ROCK-I
PC-3 cells [7] = assay: In vitro invasion assay in PC-3 cells; type: cell-based; conditions: Homo sapiens, 48 hours, compared to the control
Method: Transwell chambers coated with GFR Matrigel (BD Biosciences) were used for measurement of cell invasion. The matrigel was solidified at 37° C. in a humidified incubator the day before the assay. PC3 cells (1×10^3 cells per well) were grown in serum-free RPMI1640 media in the upper side of the insert. The lower well was filled with RPMI 1640 supplemented with 10% FBS with a Limk inhibitor (1 μM). PC3 cells were incubated at 37° C. in a humidified atmosphere containing 5% CO2 for 48 h. Then transwell membrane was rinsed three times with PBS, and the cells were fixed in 2.5% EM grade glutaraldehyde for 15 min at room temperature (RT) with no shaking. After removing glutaraldehyde by aspirating, the cells were permeabilized with 0.5% Triton X-100 in PBS for 3 min at RT, and they were rinsed three times with PBS. Then, the cells were stained by Gill's hematoxylin No. 1 for 15 min at RT, and they were washed by distilled water for three times. To remove any residual stain, the cells were washed by acid alcohol for 3 minutes and then rinsed by distilled water twice. The cells were exposed with 0.04% NH4OH until a blue color is observed on the membrane and then rinsed by distilled water twice. The membranes were dried overnight, and the stained cells were visualized under Leica DMI3000B microscope.

[8] = IOP lowering on rat eyes, topical dosing; type: in vivo, Brown Norway rats
[9] = Microsomal stability, human liver microsomes; type: in vitro ADME
Limk1 [10] = biological target: T1, Limk1; conditions: reported by a Japanese group; read-out: Limk1 inhibition IC50; cited from earlier work
[11] = Table 5, means of ≥2 experiments, read-out: Biochemical IC50 (nM) ROCK-II
[12] = Table 5, means of ≥2 experiments, read-out: Biochemical IC50 (nM) Limk1
[13] = A7R5, A7r5 cells, read-out: Cofilin Phosphorylation In A7r5 Cells (IC50)
[14] = Table 4, means of ≥2 experiments, read-out: IC50 (nM) ROCK-II
[15] = Table 4, means of ≥2 experiments, read-out: IC50 (nM) Limk1

P450 2D6, sequence (P10635 whole entry): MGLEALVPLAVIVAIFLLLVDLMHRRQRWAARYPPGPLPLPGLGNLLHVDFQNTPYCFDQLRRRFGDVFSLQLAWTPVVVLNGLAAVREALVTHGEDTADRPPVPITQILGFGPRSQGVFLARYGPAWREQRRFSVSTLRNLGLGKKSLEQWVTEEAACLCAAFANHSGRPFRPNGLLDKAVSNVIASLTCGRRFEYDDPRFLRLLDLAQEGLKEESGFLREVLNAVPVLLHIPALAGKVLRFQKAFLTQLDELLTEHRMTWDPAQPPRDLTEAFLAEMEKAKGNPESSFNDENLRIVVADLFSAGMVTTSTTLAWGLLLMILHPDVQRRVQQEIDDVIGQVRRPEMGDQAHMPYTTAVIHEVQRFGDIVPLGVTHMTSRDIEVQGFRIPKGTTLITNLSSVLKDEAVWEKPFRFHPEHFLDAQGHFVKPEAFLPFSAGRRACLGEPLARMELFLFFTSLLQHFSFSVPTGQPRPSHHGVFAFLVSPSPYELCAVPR
ROCK-II, sequence (O75116 whole entry, species assumed): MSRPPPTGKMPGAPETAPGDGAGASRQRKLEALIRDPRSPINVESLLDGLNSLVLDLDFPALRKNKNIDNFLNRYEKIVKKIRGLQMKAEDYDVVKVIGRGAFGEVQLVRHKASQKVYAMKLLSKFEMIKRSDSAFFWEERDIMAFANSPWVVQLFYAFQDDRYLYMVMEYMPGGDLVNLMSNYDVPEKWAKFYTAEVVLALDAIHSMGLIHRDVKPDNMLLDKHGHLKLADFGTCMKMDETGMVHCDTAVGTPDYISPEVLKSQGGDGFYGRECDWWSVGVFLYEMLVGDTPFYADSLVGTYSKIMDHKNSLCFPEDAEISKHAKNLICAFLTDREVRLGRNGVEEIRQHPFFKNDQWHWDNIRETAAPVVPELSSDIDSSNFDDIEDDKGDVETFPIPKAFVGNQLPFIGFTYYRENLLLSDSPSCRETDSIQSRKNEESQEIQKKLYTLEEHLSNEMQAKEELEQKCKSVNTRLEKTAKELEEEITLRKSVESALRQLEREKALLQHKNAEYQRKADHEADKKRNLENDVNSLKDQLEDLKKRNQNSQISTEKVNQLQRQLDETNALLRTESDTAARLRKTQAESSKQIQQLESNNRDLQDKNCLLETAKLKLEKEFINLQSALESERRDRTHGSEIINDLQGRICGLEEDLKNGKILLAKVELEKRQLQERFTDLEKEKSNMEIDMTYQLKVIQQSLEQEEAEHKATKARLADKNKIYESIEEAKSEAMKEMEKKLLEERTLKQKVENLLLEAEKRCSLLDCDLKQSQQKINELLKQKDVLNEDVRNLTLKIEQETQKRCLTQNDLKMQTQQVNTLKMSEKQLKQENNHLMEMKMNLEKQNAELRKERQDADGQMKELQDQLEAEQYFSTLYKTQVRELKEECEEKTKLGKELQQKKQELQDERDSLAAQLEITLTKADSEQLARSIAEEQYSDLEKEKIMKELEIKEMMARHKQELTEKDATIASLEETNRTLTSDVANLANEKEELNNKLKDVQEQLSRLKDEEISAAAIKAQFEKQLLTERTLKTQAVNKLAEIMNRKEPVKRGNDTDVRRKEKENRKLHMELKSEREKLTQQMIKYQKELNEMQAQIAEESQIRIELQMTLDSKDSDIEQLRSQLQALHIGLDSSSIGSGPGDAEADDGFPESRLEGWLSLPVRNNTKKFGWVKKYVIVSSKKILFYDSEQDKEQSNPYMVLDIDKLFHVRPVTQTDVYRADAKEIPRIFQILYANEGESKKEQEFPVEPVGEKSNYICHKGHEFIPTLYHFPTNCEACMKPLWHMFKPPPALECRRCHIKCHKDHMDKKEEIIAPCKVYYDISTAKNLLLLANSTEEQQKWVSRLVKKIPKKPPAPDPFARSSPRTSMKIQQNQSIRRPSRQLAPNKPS
P450 2C9, sequence (P11712 whole entry): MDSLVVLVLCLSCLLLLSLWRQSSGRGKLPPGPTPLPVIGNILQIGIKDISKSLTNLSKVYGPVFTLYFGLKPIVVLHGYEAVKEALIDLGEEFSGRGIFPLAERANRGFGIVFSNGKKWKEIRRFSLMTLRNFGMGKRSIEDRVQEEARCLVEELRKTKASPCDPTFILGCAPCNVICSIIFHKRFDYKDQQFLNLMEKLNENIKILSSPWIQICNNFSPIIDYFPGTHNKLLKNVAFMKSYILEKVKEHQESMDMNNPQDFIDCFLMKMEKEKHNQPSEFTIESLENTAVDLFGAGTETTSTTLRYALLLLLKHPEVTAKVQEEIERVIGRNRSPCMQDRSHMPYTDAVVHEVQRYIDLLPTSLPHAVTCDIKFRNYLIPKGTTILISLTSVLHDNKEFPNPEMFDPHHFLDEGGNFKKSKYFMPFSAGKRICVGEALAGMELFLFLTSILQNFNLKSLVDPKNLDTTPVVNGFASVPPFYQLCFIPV
P450 3A4, sequence (P08684 whole entry): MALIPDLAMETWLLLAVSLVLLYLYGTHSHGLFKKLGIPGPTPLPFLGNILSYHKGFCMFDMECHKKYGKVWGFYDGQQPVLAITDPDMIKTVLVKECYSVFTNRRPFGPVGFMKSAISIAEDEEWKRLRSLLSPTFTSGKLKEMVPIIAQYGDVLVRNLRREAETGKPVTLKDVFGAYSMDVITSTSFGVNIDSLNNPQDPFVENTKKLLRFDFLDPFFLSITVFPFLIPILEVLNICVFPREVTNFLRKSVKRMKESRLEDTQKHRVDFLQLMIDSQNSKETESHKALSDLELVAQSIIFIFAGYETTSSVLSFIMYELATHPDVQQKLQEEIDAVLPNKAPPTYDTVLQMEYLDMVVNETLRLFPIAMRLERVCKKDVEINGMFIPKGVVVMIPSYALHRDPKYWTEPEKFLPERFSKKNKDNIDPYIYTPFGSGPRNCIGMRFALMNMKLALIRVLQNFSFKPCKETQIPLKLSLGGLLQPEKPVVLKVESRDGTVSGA
JNK3, sequence (P53779 whole entry, species assumed): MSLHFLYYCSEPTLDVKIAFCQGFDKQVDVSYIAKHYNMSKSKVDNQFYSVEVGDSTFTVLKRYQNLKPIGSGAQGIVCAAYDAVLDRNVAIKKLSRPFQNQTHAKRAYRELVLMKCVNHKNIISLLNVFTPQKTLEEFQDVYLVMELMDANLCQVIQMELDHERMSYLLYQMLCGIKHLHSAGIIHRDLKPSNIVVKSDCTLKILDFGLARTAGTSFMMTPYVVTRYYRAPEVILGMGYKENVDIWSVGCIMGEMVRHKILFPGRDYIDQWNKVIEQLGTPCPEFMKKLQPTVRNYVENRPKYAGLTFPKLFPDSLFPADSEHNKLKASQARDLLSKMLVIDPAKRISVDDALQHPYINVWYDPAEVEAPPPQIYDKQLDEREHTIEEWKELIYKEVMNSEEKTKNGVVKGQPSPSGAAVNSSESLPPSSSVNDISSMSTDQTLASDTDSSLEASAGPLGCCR
ROCK-I, sequence (Q13464 whole entry, species assumed): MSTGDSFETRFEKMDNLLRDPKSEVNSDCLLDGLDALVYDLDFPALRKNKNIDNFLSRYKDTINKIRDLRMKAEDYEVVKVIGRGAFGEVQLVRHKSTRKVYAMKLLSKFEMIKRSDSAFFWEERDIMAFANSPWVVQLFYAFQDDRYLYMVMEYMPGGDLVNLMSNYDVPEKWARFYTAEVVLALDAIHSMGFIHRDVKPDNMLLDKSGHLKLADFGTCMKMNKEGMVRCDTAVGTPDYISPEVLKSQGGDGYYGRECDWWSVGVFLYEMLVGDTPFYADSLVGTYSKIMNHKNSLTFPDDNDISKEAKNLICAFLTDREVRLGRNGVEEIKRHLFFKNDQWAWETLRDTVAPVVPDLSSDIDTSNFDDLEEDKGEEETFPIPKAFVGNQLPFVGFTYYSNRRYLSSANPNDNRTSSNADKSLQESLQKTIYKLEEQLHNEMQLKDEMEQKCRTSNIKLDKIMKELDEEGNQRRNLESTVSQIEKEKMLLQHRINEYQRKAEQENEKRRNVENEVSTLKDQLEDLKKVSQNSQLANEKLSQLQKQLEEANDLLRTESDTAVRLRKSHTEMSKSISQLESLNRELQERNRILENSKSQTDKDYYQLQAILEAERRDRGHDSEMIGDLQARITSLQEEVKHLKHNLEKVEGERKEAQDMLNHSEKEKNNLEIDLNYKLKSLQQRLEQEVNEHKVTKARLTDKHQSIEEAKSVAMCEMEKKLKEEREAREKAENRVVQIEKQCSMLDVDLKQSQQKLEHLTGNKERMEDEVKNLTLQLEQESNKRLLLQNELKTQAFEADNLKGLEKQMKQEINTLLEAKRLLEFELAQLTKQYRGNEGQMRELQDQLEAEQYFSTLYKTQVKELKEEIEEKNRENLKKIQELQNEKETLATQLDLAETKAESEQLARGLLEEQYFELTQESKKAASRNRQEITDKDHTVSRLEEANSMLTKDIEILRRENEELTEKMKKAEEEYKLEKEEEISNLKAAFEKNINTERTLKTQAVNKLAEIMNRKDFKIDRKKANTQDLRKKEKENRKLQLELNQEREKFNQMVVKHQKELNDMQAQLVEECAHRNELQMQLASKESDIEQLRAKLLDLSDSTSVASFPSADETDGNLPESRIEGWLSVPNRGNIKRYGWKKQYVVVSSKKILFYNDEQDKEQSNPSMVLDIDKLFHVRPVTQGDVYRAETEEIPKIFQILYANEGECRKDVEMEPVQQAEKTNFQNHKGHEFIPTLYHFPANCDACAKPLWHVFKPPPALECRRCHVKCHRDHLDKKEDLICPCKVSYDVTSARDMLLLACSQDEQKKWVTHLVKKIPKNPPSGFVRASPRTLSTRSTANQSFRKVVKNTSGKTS

Structure (SMILES)	IC50 (ROCK-II; read-out: ROCK-II IC50)	AUC (iv) ([3]; rats, iv dosing 1 mg/kg)	Cl (iv) ([3]; rats, iv dosing 1 mg/kg)	T1/2 (iv) ([3]; rats, iv dosing 1 mg/kg)	Yd (iv) ([3]; rats, iv dosing 1 mg/kg)	Cmax ([3]; rats, iv dosing 1 mg/kg)	IC50 (ROCK-II; [14])	P450 % inh. at 10 μM 2C9 (P450 2C9)	P450 % inh. at 10 μM 2D6 (P450 2D6)	IC50 (ROCK-II; [11])	IC50 (Limk1 [1]; [12])	P450 % inh. at 10 μM 1A2 (P450 1A2; 10 μM)	inhibition at 1 µM [2]	IC50 [4, 13]	P450 % inh. at 10 μM 3A4 (P450 3A4)	Microsomal Stability t1/2 (min) Rat ([5]; rat liver microsomes)	IC50 (Limk1 [1]; [15])	F (%) (po) ([3]; rats)	other results
Cc1c[nH]c2ncnc(-c3ccc(NC(=O)N(CCO)c4ccccc4Cl)cc3)c12 [Compound 18f, 1-(2-Chlorophenyl)-1-(2-hydroxyethyl)-3-(4-(5-methyl-7H-pyrrolo[2,3-d]pyrimidin-4-yl)phenyl)urea]		5.1 µM·h	7.7 mL/min/kg			4700 nM	3340 nM	39%	1%						37%		58 nM	21%	inhibition at 0.1 µM (PC-3 cells [6]): 13%; inhibition at 1 µM (PC-3 cells [6]): 76.1%; inhibition at 10 µM (PC-3 cells [6]): 81%; IC50 (ROCK-I): 4390 nM; P450 % inh. at 10 μM 1A2 (P450 1A2): −4/39/1/37%; T1/2 (iv) ([3]; rat, in vivo, iv, 1 mg/kg): 1.5 h; Yd (iv) ([3]; rat, in vivo, iv, 1 mg/kg): 0.7 L/kg; IC50 ([4]; A7R5, read-out: Cofilin Phosphorylation In A7r5 Cells (IC50, nM)): 420 nM; inhibition at 1 µM (PC-3 cells [7]): 83%; Microsomal Stability t1/2 (min) Rat [5]: 38 min
Cc1[nH]c2ncnc(-c3ccc(NC(=O)N(CCN(C)C)c4ccc(Cl)cc4)c(F)c3)c2c1C [Compound 18w, 1-(4-Chlorophenyl)-3-(4-(5,6-dimethyl-7H-pyrrolo[2,3-d]pyrimidin-4-yl)-2-fluorophenyl)-1-(2-(dimethylamino)ethyl)urea]	> 20000 nM	3.0 µM·h	14.2 mL/min/kg	3.3 h	1.5 L/kg	2400 nM		−23%	20%	> 20000 nM	19 nM	15%		320 nM	−9%	23 min			maximal IOP decrease of the treated eye ([8]; 20 ul of […], from 1 to 4 hours, baseline 28 mmHg): ~6 mmHg; IOP drop on rat eyes ([8]; topical, dose of 50 μg): > 20%; Microsomal Stability t1/2 (min) Human [9]: 19 min
COc1c(C=O)c(O)cc2c1C(=O)c1ccccc1C2=O [Damnacanthal]																			IC50 (Limk1 [10]): ~800 nM

Continued, in another order:

IC50 (ROCK-II; read-out: ROCK-II IC50)	AUC (iv) ([3]; rats, iv dosing 1 mg/kg)	Cl (iv) ([3]; rats, iv dosing 1 mg/kg)	T1/2 (iv) ([3]; rats, iv dosing 1 mg/kg)	Yd (iv) ([3]; rats, iv dosing 1 mg/kg)	Cmax ([3]; rats, iv dosing 1 mg/kg)	IC50 (ROCK-II; [14])	Structure (SMILES)	P450 % inh. at 10 μM 2C9 (P450 2C9)	P450 % inh. at 10 μM 2D6 (P450 2D6)	IC50 (ROCK-II; [11])	IC50 (Limk1 [1]; [12])	P450 % inh. at 10 μM 1A2 (P450 1A2; 10 μM)	inhibition at 1 µM [2]	IC50 [4, 13]	P450 % inh. at 10 μM 3A4 (P450 3A4)	Microsomal Stability t1/2 (min) Rat ([5]; rat liver microsomes)	IC50 (Limk1 [1]; [15])	F (%) (po) ([3]; rats)	other results
> 20000 nM	5.1 µM·h	6.9 mL/min/kg	3.4 h	1.2 L/kg	3500 nM		COCCN(C(=O)Nc1ccc(-c2ncnc3[nH]c(C)c(C)c23)cc1F)c1ccc(Cl)cc1 [Compound 18x, 1-(4-Chlorophenyl)-3-(4-(5,6-dimethyl-7H-pyrrolo[2,3-d]pyrimidin-4-yl)-2-fluorophenyl)-1-(2-methoxyethyl)urea]	50%	15%	> 20000 nM	8 nM	23%	> 50%	250 nM	52%	13 min			IC50 (JNK3): > 10000 nM
	0.7 µM·h	55.9 mL/min/kg	5.1 h		1100 nM	460 nM	Cc1c[nH]c2ncnc(-c3ccc(NC(=O)N(CCN)c4ccc(Cl)cc4)cc3)c12 [Compound 18p, 1-(2-Aminoethyl)-1-(4-chlorophenyl)-3-(4-(5-methyl-7H-pyrrolo[2,3-d]pyrimidin-4-yl)phenyl)urea]						> 50%						
> 10000 nM	0.6 µM·h	42.2 mL/min/kg	6.1 h	17.1 L/kg	200 nM	> 10000 nM	Cc1c[nH]c2ncnc(-c3ccc(NC(=O)N(CCN(C)C)c4ccc(Cl)cc4)cc3)c12 [Compound 18r, 1-(4-Chlorophenyl)-1-(2-(dimethylamino)ethyl)-3-(4-(5-methyl-7H-pyrrolo[2,3-d]pyrimidin-4-yl)phenyl)urea]						> 50%				20 nM	0%	IC50 (Limk1 [1]; read-out: Limk1 IC50): ~20 nM
